From patent US6531464B1, “Methods for the treatment of neurodegenerative disorders using substituted phenanthridinone derivatives” (Inotek Pharmaceutical Corporation, priority 1999, dated 2003)

Assays:
TNF-α = assay: LPS-stimulated J774 macrophages: TNF-α production; assay type: cell-based
Description: (§1) In in vitro studies, J774 macrophages were exposed to bacterial lipopolysaccharide (LPS), to induce pro-inflammatory mediator production and cytotoxicity. […] This assay (the LPS-stimulated macrophage) represents an in vitro model of an inflammatory situation. Agents that block inflammatory mediator production in this assay are expected to have anti-inflammatory or immunosuppressive effects in inflammatory or immune diseases.
(§2) The half-maximal inhibitory effect (in μM) of various PJ compounds was assessed under a variety of conditions in immunostimulated J774 macrophages and in peroxynitrite-stimulated thymocytes. Macrophages or thymocytes were first treated with a chosen PJ compound for 30 min at a concentration ranging from 0.1 to 30 μM. The cells were then immunostimulated with LPS (10 μg/ml) or treated with peroxynitrite (30 μM). MIP production in the macrophages was measured at 3 h, TNF and nitric oxide were measured at 24 h, cell viability in the macrophages were measured at 24 h. PARS activation and cell death in thymocytes were measured at 6 h. Measurements of mediator production, PARS activation and cell death were essentially as described in Németh, et al., Eur J Pharmacol 339:215-221, 1997 and Virág and Szabó, Br J Pharmacol, 126: 769-777, 1999. Results in Table 2 are shown as EC50 values (half maximal inhibition of mediator production or restoration of cell viability; in μM): [mean±SEM of n=3-6 determinations].

cultured neurons = details: oxygen/glucose deprivation; concentration range 10 nM-1 μM
Description: A second experimental system was used where oxygen/glucose deprivation induced cell death in cultured neurons (i.e. an in vitro model of stroke).

thymocytes = assay: Peroxynitrite-stimulated thymocytes: cell viability; assay type: cell-based
Procedure: as §2

[1] = system: streptozotocin diabetic mice; assay: Streptozotocin induced diabetes: vascular function, glucose, insulin, immunostaining; assay type: in vivo, mouse
Procedure: Male Balb/c mice were treated intraperitoneally (i.p.) with streptozotocin (240 mg/kg dissolved in citrate buffer) or vehicle (citrate buffer). Blood glucose was then monitored weekly over 8 weeks using a one-touch blood glucose meter (Lifescan). Hyperglycemia was defined as non-fasting blood glucose level higher than 200 mg/dL. Total glycated hemoglobin (GHb) content of blood samples was measured using a commercially available kit (Sigma Diagnostics) according to manufacturers instructions. […] The optical density of the two fractions was measured by spectrophotometry at 415 nm and the per cent glycated hemoglobin content was calculated as follows: GHb (%)=[…]/(E+[…]). Samples of pancreas were removed on week 8 and weighed before being placed into 6 ml of acid ethanol (23:7:0.45, ethanol:dH2O:HCl) and homogenized. The pancreas was incubated for 72 h at 4° C. before being centrifuged. The insulin content of the supernatant was then determined using a commercially available ELISA kit (Alpco). […] At 8 weeks, blood was taken for measurement of glycosylated hemoglobin levels, pancreata taken for measurements of pancreatic insulin content, and thoracic aortae taken for determination of endothelium-dependent relaxant reactivity. There was no difference in the degree of hyperglycemia and glycosylated hemoglobin, and in the degree of pancreatic insulin loss between vehicle and PJ34 treated diabetic animals. […] Sections were treated with 0.3% hydrogen peroxide for 15 min to block endogenous peroxidase activity and then rinsed briefly in PBS. Non-specific binding was blocked by incubating the slides for 1 h in PBS containing 2% horse serum. To detect poly(ADP-ribose), a routine histochemical procedure was applied, as previously described (Scott et al., Ann. Neurol. 45: 120-124, 1999) with minor modifications, as follows: Mouse monoclonal anti-poly(ADP-ribose) antibody (Alexis, San Diego, Calif.) and isotype-matched control antibody were applied in a dilution of 1:100 for 2 h at room temperature. Following extensive washing (5×5 min) with PBS, immunoreactivity was detected with a biotinylated goat anti-rabbit secondary antibody and the avidin-biotin-peroxidase complex (ABC), both supplied in the Vector Elite kit (Vector Laboratories, Burlingame, Calif.). Color was developed using Ni-DAB substrate (95 mg diaminobenzidine, 1.6 g NaCl, 2 g nickel sulfate in 200 ml 0.1 M acetate buffer). Sections were then counterstained with nuclear fast red, dehydrated and mounted in Permount. Photomicrographs were taken with a Zeiss Axiolab microscope equipped with a Fuji HC-300C digital camera. Detection of nitrotyrosine in aorta rings was carried out as described above for poly(ADP-ribose) staining except that rabbit anti-nitrotyrosine polyclonal antibody was used as the primary antibody. […] Cells were rehydrated in PBS, blocked in 2% goat serum (1 h, room temperature) and incubated in anti-nitrotyrosine (1:100 dilution) for 2 h. Subsequent steps of the staining procedure were identical to the tissue staining. Color was developed with Vector Red substrate, and slides were mounted in glycerol.

J774 macrophages = assay: LPS-stimulated J774 macrophages: cell viability; assay type: cell-based
Description: as §1, §2

rat = assay: Middle cerebral artery occlusion/reperfusion
Procedure: Occlusion lasted for 2 hours, followed by reperfusion for 24 hours. Infarct size was quantified with tetrazolium staining, and survival and neurological scores were monitored.

SJL/PLJ mice = assay: Experimental allergic encephalomyelitis (EAE) induced by MBP immunization; assay type: in vivo, mouse
Procedure: The studies were performed according to standard methods. See, e.g., Hooper et al., Proc Natl Acad Sci U S A 95:675-680, 1998. Briefly, EAE was caused by immunization of 8-10 week old female SJL/PLJ mice with MBP (in complete Freund's adjuvant containing 0.05% M Butyricum plus an additional 4 mg/ml Mycobacterium Tuberculosis H37 RA, one […] subcutaneous dose plus 2 doses of 400 ng pertussis toxin, intra-peritoneal, on days 0 and 2). The grading system shown in Table 5 was used to evaluate the severity of the disease.

[2] = J774 macrophages exposed to LPS
[3] = 10 mg/kg per os once a day from week 1, at 8 weeks
[4] = 10 mg/kg orally 2 times daily from day 10

CN(C)CC(=O)Nc1ccc2[nH]c(=O)c3ccccc3c2c1 [PJ34, N-(6-oxo-5,6-dihydro-phenanthridin-2-yl)-N,N-dimethylacetamide]
production of the pro-inflammatory cytokine TNF-α (in words) (TNF-α; [2]): inhibited | EC50 (TNF-α; Mus musculus, J774, LPS 10 μg/ml, 30 min pretreatment 0.1 to 30 μM, measured at 24 h, mean±SEM n=3-6, read-out: Inhibition of TNF-α (J774)): 5.4 ± 0.6 µM | cytoprotection (cultured neurons): up to 70% | EC50 (thymocytes; Thymocyte, peroxynitrite 30 μM, 30 min pretreatment 0.1 to 30 μM, measured at 6 h, mean±SEM n=3-6, read-out: Enhancement of cell viability (thymocyte)): 0.2 ± 0.1 µM | oxidant-induced suppression of the viability of the cells (in words) (thymocytes; isolated thymocytes exposed to peroxynitrite or hydrogen peroxide): prevented | degree of hyperglycemia (blood glucose) vs vehicle ([1]; 10 mg/kg per os once a day from week 1, 0-8 weeks): no difference | degree of pancreatic insulin loss vs vehicle [1, 3]: no difference | glycosylated hemoglobin vs vehicle [1, 3]: no difference | PARS activation (poly(ADP-ribose) staining) in diabetic endothelium ([1]; 8 weeks): abolished | tyrosine nitration (nitrotyrosine immunostaining) in diabetic rings ([1]; 8 weeks): not affected | vascular reactivity of normal (non-diabetic) mice ([1]; chronic treatment 8 weeks, same regimen, not shown): did not affect | acetylcholine induced endothelium-dependent relaxant ability of thoracic aortic rings ([1]; diabetic animals at 8 weeks, 10 mg/kg per os daily, P<0.01 vs vehicle): normalized | viability of the cells suppressed by LPS exposure (in words) (J774 macrophages; [2]): restored the viability | EC50 (J774 macrophages; Mus musculus, J774, LPS 10 μg/ml, 30 min pretreatment 0.1 to 30 μM, measured at 24 h, mean±SEM n=3-6, read-out: Enhancement of cell Viability (J774)): 12.5 ± 1.4 µM | reduction of the size of brain infarction (rat; 10 mg/kg i.v. at 2 h after the start of reperfusion): 55±8% | reduction of the size of brain infarction (rat; 10 mg/kg i.v. at the time of reperfusion (5 min before start)): 74±6% | mortality over 24 hours (in words) (rat; 2 hours occlusion, 24 hours reperfusion, 10 mg/kg i.v., 73% mortality in control or vehicle): no animals died | neurological deficit (scale of 1-4) (rat; 24 h, vehicle survivors scored 4): no detectable deficit | mortality in EAE (in words) (SJL/PLJ mice; [4]): significant reduction | severity of EAE (in words) (SJL/PLJ mice; [4]): significant reduction | Percent mortality (SJL/PLJ mice; Day 10 after immunization, 10 mg/kg orally 2 times daily from day 10): 0% | Average Disease severity index (SJL/PLJ mice; Day 10 after immunization, 10 mg/kg orally 2 times daily from day 10, grading Table 5): 0 | Average Disease severity index (SJL/PLJ mice; Day 11): 0 | Percent mortality (SJL/PLJ mice; Day 11): 0% | Average Disease severity index (SJL/PLJ mice; Day 12): 0 | Percent mortality (SJL/PLJ mice; Day 12): 0% | Average Disease severity index (SJL/PLJ mice; Day 13): 0 | Percent mortality (SJL/PLJ mice; Day 13): 0% | Average Disease severity index (SJL/PLJ mice; Day 14): 0 | Percent mortality (SJL/PLJ mice; Day 14): 0% | Average Disease severity index (SJL/PLJ mice; Day 15): 0 | Percent mortality (SJL/PLJ mice; Day 15): 0% | Average Disease severity index (SJL/PLJ mice; Day 16): 4 | Percent mortality (SJL/PLJ mice; Day 16): 0% | Average Disease severity index (SJL/PLJ mice; Day 17): 4 | Percent mortality (SJL/PLJ mice; Day 17): 0% | Average Disease severity index (SJL/PLJ mice; Day 18): 4 | Percent mortality (SJL/PLJ mice; Day 18): 0% | Average Disease severity index (SJL/PLJ mice; Day 19): 4 | Percent mortality (SJL/PLJ mice; Day 19): 0% | Average Disease severity index (SJL/PLJ mice; Day 20): 3 | Percent mortality (SJL/PLJ mice; Day 20): 0%
